Experimental data: patent US8993586B2, “N1/N2-lactam acetyl-CoA carboxylase inhibitors” (Pfizer Inc., priority 2010, dated 2015)

Experiments:
[1] = target: recombinant human ACC1 (rhACC1) (Homo sapiens (Human), UniProt Q13085); experiment: recombinant hACC1 Transcreener ADP detection FP assay; format: biochemical; settings: 50 μM ATP, 120 min at 25° C.
Experimental: (§1) For example direct inhibition of ACC activity, for the compound of Formula (I) was determined using preparations of recombinant human ACC1 (rhACC1) and recombinant human ACC2 (rhACC2).
[1] Preparation of rhACC1. Two liters of SF9 cells, infected with recombinant baculovirus containing full length human ACC1 cDNA, were suspended in ice-cold lysis buffer (25 mM Tris, pH 7.5; 150 mM NaCl; 10% glycerol; 5 mM imidazole (EMD Bioscience; Gibbstown, N.J.); 2 mM TCEP (BioVectra; Charlottetown, Canada); Benzonase nuclease (10000 U/100 g cell paste; Novagen; Madison, Wis.); EDTA-free protease inhibitor cocktail (1 tab/50 mL; Roche Diagnostics; Mannheim, Germany). Cells were lysed by 3 cycles of freeze-thaw and centrifuged at 40,000×g for 40 minutes (4° C.). Supernatant was directly loaded onto a HisTrap FF crude column (GE Healthcare; Piscataway, N.J.) and eluted with an imidazole gradient up to 0.5 M over 20 column volumes (CV). ACC1-containing fractions were pooled and diluted 1:5 with 25 mM Tris, pH 7.5, 2 mM TCEP, 10% glycerol and direct loaded onto a CaptoQ (GE Healthcare) column and eluted with an NaCl gradient up to 1 M over 20 CV's. Phosphate groups were removed from purified ACC1 by incubation with lambda phosphatase (100 U/10 μM target protein; New England Biolabs; Beverly, Mass.) for 14 hours at 4° C.; okadaic acid was added (1 μM final concentration; Roche Diagnostics) to inhibit the phosphatase. Purified ACC1 was exchanged into 25 mM Tris, pH 7.5, 2 mM TCEP, 10% glycerol, 0.5 M NaCl by 6 hour dialysis at 4° C. Aliquots were prepared and frozen at −80° C.
[2] Measurement of rhACC1 inhibition. hACC1 was assayed in a Costar #3676 (Costar, Cambridge, Mass.) 384-well plate using the Transcreener ADP detection FP assay kit (Bellbrook Labs, Madison, Wis.) using the manufacturer's recommended conditions for a 50 μM ATP reaction. The final conditions for the assay were 50 mM HEPES, pH 7.2, 10 mM MgCl2, 7.5 mM tripotassium citrate, 2 mM DTT, 0.1 mg/mL BSA, 30 μM acetyl-CoA, 50 μM ATP, and 10 mM KHCO3 Typically, a 10 μl reaction was run for 120 min at 25° C., and 10 μl of Transcreener stop and detect buffer was added and the combination incubated at room temp for an additional 1 hour. The data was acquired on a Envision Fluorescence reader (PerkinElmer) using a 620 excitation Cy5 FP general dual mirror, 620 excitation Cy5 FP filter, 688 emission (S) and a 688 (P) emission filter.

[2] = target: recombinant human ACC2 (rhACC2) (Homo sapiens (Human), UniProt O00763); experiment: recombinant hACC2 Transcreener ADP detection FP assay; format: biochemical; settings: 50 uM ATP, 50 min at 25° C.
Chain of recombinant human ACC2 (rhACC2) (O00763 whole entry V2141I): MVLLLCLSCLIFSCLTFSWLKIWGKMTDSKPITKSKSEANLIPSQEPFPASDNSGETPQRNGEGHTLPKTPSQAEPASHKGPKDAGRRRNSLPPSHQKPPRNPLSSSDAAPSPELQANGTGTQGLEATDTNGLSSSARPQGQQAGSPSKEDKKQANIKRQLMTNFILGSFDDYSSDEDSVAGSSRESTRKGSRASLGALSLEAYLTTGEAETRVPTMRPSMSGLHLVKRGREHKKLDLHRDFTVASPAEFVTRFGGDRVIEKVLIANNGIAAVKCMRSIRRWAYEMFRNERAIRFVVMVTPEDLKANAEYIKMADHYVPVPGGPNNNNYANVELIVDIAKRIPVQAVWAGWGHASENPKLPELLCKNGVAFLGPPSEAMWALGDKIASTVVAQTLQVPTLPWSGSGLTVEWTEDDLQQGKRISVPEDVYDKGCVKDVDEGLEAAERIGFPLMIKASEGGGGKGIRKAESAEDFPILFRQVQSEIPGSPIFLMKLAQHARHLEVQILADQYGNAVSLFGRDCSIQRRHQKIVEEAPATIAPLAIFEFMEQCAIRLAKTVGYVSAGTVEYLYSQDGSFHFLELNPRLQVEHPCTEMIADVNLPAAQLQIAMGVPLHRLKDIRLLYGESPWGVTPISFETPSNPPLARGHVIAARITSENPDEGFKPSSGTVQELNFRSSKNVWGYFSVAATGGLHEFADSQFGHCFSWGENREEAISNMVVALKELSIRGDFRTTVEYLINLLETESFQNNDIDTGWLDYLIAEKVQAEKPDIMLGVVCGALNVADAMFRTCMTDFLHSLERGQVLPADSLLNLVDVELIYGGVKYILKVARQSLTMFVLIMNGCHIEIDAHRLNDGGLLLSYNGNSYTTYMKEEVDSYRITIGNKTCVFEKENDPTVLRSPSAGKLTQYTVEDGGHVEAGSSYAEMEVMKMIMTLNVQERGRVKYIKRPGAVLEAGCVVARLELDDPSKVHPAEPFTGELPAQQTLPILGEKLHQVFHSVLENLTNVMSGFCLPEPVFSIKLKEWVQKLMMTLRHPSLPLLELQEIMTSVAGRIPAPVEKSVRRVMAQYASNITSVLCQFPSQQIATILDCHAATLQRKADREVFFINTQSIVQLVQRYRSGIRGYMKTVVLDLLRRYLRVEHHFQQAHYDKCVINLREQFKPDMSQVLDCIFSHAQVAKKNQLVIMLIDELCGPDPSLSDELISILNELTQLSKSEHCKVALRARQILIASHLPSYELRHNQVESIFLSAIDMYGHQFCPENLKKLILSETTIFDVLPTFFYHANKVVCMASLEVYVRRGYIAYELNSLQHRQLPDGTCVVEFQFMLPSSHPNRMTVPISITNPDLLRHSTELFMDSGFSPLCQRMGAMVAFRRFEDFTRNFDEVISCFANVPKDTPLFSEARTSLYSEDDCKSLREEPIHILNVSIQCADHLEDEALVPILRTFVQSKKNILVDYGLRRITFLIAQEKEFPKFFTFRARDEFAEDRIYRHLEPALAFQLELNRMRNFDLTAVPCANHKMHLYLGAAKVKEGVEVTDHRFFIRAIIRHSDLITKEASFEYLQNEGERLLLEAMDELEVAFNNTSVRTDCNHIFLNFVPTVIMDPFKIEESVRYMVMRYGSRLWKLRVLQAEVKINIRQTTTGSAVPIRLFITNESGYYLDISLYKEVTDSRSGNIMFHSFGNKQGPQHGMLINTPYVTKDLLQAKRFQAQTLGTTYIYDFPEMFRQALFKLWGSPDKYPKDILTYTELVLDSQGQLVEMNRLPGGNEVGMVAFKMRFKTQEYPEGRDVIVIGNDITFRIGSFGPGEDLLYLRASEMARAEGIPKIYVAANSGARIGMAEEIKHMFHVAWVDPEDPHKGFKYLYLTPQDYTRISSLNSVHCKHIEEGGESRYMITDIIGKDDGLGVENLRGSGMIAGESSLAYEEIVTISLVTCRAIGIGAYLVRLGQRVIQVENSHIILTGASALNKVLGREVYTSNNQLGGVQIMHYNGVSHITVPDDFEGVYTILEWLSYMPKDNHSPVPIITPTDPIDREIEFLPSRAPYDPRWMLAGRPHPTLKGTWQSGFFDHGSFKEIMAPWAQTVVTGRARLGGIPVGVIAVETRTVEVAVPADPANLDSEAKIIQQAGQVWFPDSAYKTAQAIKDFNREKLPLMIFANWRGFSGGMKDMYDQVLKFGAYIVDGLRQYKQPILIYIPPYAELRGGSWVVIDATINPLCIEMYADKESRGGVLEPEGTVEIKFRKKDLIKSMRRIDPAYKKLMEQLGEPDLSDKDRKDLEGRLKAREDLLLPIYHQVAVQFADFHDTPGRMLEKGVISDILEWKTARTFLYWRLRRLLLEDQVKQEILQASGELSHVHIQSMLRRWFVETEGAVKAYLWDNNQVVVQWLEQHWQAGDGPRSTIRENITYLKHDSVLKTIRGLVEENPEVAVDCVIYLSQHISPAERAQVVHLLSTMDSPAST
Experimental: as §1
[3] Preparation of rhACC2. Human ACC2 inhibition was measured using purified recombinant human ACC2 (hrACC2). Briefly, a full length Cytomax clone of ACC2 was purchased from Cambridge Bioscience Limited and was sequenced and subcloned into PCDNA5 FRT TO-TOPO (Invitrogen, Carlsbad, Calif.). The ACC2 was expressed in CHO cells by tetracycline induction and harvested in 5 liters of DMEM/F12 with glutamine, biotin, hygromycin and blasticidin with 1 μg/mL tetracycline (Invitrogen, Carlsbad, Calif.). The conditioned medium containing ACC2 was then applied to a Softlink Soft Release Avidin column (Promega, Madison, Wis.) and eluted with 5 mM biotin. […] The purified ACC2 was dialyzed in 50 mM Tris, 200 mM NaCl, 4 mM DTT, 2 mM EDTA, and 5% glycerol. […] For measurement of ACC2 activity and assessment of ACC2 inhibition, test compounds were dissolved in DMSO and added to the rhACC2 enzyme as a 5× stock with a final DMSO concentration of 1%.
[4] Measurement of human ACC2 inhibition. hACC2 was assayed in a Costar #3676 (Costar, Cambridge, Mass.) 384-well plate using the Transcreener ADP detection FP assay kit (Bellbrook Labs, Madison, Wis.) using the manufacturer's recommended conditions for a 50 uM ATP reaction. The final conditions for the assay were 50 mM HEPES, pH 7.2, 5 mM MgCl2, 5 mM tripotassium citrate, 2 mM DTT, 0.1 mg/mL BSA, 30 μM acetyl-CoA, 50 μM ATP, and 8 mM KHCO3 Typically, a 10 μl reaction was run for 50 min at 25° C., and 10 μl of Transcreener stop and detect buffer was added and the combination incubated at room temp for an additional 1 hour. The data was acquired on an Envision Fluorescence reader (PerkinElmer) using a 620 excitation Cy5 FP general dual mirror, 620 excitation Cy5 FP filter, 688 emission (S) and a 688 (P) emission filter.

Row | Compound | IC50 [1] [nM] | IC50 [2] [nM]
1 | CC(F)(F)CNc1ccc2ccc(C(=O)N3CCC4(CC3)Cc3cn(C(C)(C)C)nc3C(=O)N4)cc2n1 [Example 125] | 9 | 1.7
2 | CC(C)(C)n1cc2c(n1)C(=O)NC1(CCN(C(=O)c3ccc4ccnc(N)c4c3)CC1)C2 [Example 100, 1-(1-aminoisoquinoline-7-carbonyl)-2′-tert-butyl-4′,6′-dihydrospiro[piperidine-4,5′-pyrazolo[3,4-c]pyridin]-7′(2′H)-one] | 62 | 21
3 | CC(C)n1ncc2c1C(=O)NC1(CCN(C(=O)c3ccc4[nH]ncc4c3)CC1)C2 [Example 5] | 227 | 174
4 | CC(C)(C)n1cc2c(n1)C(=O)NC1(CCN(C(=O)c3ccc4ccc(NC5CC5)nc4c3)CC1)C2 [Example 106] | 7.5 | 2.6
5 | COc1n[nH]c2ccc(C(=O)N3CCC4(CC3)Cc3cn(C(C)(C)C)nc3C(=O)N4)cc12 [Example 81] | 46 | 5.3
6 | COc1ccc2cc(C(=O)N3CCC4(CC3)Cc3cn(C(C)(C)C)nc3C(=O)N4)ccc2c1 [Example 46] | 36 | 5.3
7 | CC(C)(C)n1cc2c(n1)C(=O)NC1(CCN(C(=O)c3ccc4c(N)n[nH]c4c3)CC1)C2 [Example 65] | 256 | 56
8 | CC(C)Nc1ccc2ccc(C(=O)N3CCC4(CC3)Cc3cn(C(C)(C)C)nc3C(=O)N4)cc2n1 [Example 107] | 6.1 | 2.2
9 | CC(C)(C)Nc1nccc2ccc(C(=O)N3CCC4(CC3)Cc3cn(C(C)(C)C)nc3C(=O)N4)cc12 [Example 123, 2′-(tert-butyl)-1-(1-(tert-butylamino)isoquinoline-7-carbonyl)-4′,6′-dihydrospiro[piperidine-4,5′-pyrazolo[3,4-c]pyridin]-7′(2′H)-one] | 78 | 6.3
10 | CCCNc1nccc2ccc(C(=O)N3CCC4(CC3)Cc3cn(C(C)(C)C)nc3C(=O)N4)cc12 [Example 119] | 24 | 2.5
11 | CC(C)(C)n1cc2c(n1)C(=O)NC1(CCN(C(=O)c3ccc4[nH]nc(C#N)c4c3)CC1)C2 [Example 60] | 43 | 14
12 | CC(C)(C)n1cc2c(n1)C(=O)NC1(CCN(C(=O)c3ccc4ncccc4c3)CC1)C2 [Example 63] | 160 | 28
13 | COc1cc(C(=O)N2CCC3(CC2)Cc2cn(C(C)(C)C)nc2C(=O)N3)cc2cn[nH]c12 [Example 99, 2′-tert-butyl-1-(7-methoxy-1H-indazole-5-carbonyl)-4′,6′-dihydrospiro[piperidine-4,5′-pyrazolo[3,4-c]pyridin]-7′(2′H)-one] | 23 | 5.6
14 | CNc1ccc2cc(C(=O)N3CCC4(CC3)Cc3cn(C(C)(C)C)nc3C(=O)N4)ccc2n1 [Example 69] | 185 | 28
15 | CNc1n[nH]c2ccc(C(=O)N3CCC4(CC3)Cc3cnn(C(C)C)c3C(=O)N4)cc12 [Example 37] | 302 | 127

Next, values leading:

Row | IC50 [1] [nM] | IC50 [2] [nM] | Compound
16 | 98 | 30 | COc1nccc2ccc(C(=O)N3CCC4(CC3)Cc3cnn(C(C)C)c3C(=O)N4)cc12 [Example 30]
17 | 403 | 498 | CC(C)n1ncc2c1C(=O)NC1(CCN(C(=O)c3cnc4cc[nH]c4c3)CC1)C2 [Example 10]
18 | 18 | 3.2 | COc1cccc2ncc(C(=O)N3CCC4(CC3)Cc3cn(C(C)(C)C)nc3C(=O)N4)cc12 [Example 74]
19 | 244 | 55 | COc1nccc2cc(C(=O)N3CCC4(CC3)Cc3cn(C(C)(C)C)nc3C(=O)N4)ccc12 [Example 92]
20 | 130 | 23 | CC(C)(C)n1cc2c(n1)C(=O)NC1(CCN(C(=O)c3ccc4cc(N)ncc4c3)CC1)C2 [Example 94]
21 | 88 | 17 | CC(C)(C)n1cc2c(n1)C(=O)NC1(CCN(C(=O)c3ccc4cn[nH]c4c3)CC1)C2 [Example 52]
22 | 688 | 320 | CC(C)n1ncc2c1C(=O)NC1(CCN(C(=O)c3ccc4cccnc4c3)CC1)C2 [Example 24]
